This note sets out measurements from patent publication US11173151B2, “Substituted triazole derivatives and uses thereof” (BAYER AKTIENGESELLSCHAFT, priority 2017, dated 2021).

The structures appear in SMILES notation. Like-named read-outs stand apart in the source and are kept apart here.

One assay addresses T1, human V2 receptor (Homo sapiens, UniProt P30518).
T1 construct: expressed in transfected cells; host or cells: CHO K1 (ATCC) expressing firefly luciferase under a CRE-responsive promoter
Briefly: Cellular in vitro assay for determining vasopressin receptor activity, V2 receptor cell line (CHO, CRE-luciferase). To be noted: CHO cell line transfected with human V2 receptor, [Arg8]-vasopressin at EC50 concentration, read-out: IC50 hV2. The format is cell-based.

The target of a further assay is T2, human V1a receptor (Homo sapiens, UniProt P37288).
T2 construct: expressed in transfected cells; host or cells: CHO K1 (ATCC), also stably transfected with a modified aequorin
T2 sequence (P37288 whole entry): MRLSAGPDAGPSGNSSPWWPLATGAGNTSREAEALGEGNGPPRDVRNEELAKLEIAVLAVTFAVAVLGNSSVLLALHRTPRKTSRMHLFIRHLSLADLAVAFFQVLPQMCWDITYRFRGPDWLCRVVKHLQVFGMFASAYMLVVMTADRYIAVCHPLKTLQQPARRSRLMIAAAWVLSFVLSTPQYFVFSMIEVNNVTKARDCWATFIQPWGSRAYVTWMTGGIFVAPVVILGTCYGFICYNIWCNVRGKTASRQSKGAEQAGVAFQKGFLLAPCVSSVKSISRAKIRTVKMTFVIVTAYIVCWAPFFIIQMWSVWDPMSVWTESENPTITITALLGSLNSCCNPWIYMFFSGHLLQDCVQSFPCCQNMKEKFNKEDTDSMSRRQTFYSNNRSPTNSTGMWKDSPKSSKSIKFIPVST
Briefly: Cellular in vitro assay for determining vasopressin receptor activity, V1a receptor cell line (CHO, aequorin luminescence). In kind it is cell-based. To be noted: for IC50: CHO cell line transfected with human V1a receptor, [Arg]-vasopressin at EC50 concentration, read-out: IC50 hV1a; for ratio IC50 hV2/hV1a: selectivity ratio IC50 hV2 / IC50 hV1a. In outline: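 IC50 from inhibition of [Arg]-vasopressin (EC50 concentration)-evoked aequorin luminescence in CHO K1 cells, with 10-min compound pretreatment.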

T1 sequence (P30518 whole entry): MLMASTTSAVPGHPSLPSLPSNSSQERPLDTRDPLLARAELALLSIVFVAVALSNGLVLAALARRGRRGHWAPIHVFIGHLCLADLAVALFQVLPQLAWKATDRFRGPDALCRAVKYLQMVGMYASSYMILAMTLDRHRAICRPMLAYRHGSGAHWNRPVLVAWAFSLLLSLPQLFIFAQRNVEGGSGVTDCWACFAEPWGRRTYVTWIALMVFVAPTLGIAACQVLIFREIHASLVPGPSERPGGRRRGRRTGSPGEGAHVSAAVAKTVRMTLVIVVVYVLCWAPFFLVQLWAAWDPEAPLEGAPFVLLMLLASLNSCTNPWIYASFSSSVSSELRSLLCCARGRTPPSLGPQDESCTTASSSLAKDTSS

What is called IC50 is the point on the concentration scale where inhibition reaches its midpoint. For `CC1CCCN(C(=O)c2ccccc2-n2cnc(Cn3nc(-c4ccc(Cl)cc4)n(C[C@H](O)C(F)(F)F)c3=O)n2)C1` (mixture of isomers) [Example 351, 5-(4-Chlorophenyl)-2-{[1-(2-{[3-methylpiperidin-1-yl]carbonyl}phenyl)-1H-1,2,4-triazol-3-yl]methyl}-4-[(2S)-3,3,3-trifluoro-2-hydroxypropyl]-2,4-dihydro-3H-1,2,4-triazol-3-one], the half-maximal inhibitory concentration (IC50) at human V2 receptor (3 hours) came out at 950 nM. Moreover, at human V1a receptor, the IC50 was determined as 2.7 nM and the “ratio IC50 hV2/hV1a” value is 351.9.

Turning to `CC1CCCN1C(=O)c1ccccc1-n1cnc(Cn2nc(-c3ccc(Cl)cc3)n(C[C@H](O)C(F)(F)F)c2=O)n1` (mixture of isomers) [Example 355, 5-(4-Chlorophenyl)-2-{[1-(2-{[2-methylpyrrolidin-1-yl]carbonyl}phenyl)-1H-1,2,4-triazol-3-yl]methyl}-4-[(2S)-3,3,3-trifluoro-2-hydroxypropyl]-2,4-dihydro-3H-1,2,4-triazol-3-one], the IC50 on human V2 receptor (3 hours) was determined as 635 nM. Further, on human V1a receptor, the IC50 was determined as 1.75 nM and the “ratio IC50 hV2/hV1a” value came to 362.9.

`O=C(NC1CC1F)c1ccccc1-n1cnc(Cn2nc(-c3ccc(Cl)cc3)n(C[C@H](O)C(F)(F)F)c2=O)n1` (mixture of isomers) [Example 364, 2-[3-({3-(4-Chlorophenyl)-5-oxo-4-[(2S)-3,3,3-trifluoro-2-hydroxypropyl]-4,5-dihydro-1H-1,2,4-triazol-1-yl}methyl)-1H-1,2,4-triazol-1-yl]-N-(2-fluorocyclopropyl)benzamide]: the IC50 on human V2 receptor (3 hours) amounted to 155 nM. For the same molecule, at human V1a receptor, the IC50 came to 0.47 nM and the “ratio IC50 hV2/hV1a” value is recorded as 329.8.

Consider `O=C(NCC(O)C(F)(F)F)c1cccc(Cl)c1-n1cnc(Cn2nc(-c3ccc(Cl)cc3)n(C[C@H](O)C(F)(F)F)c2=O)n1` (mixture of isomers) [Example 367, 3-Chloro-2-[3-({3-(4-chlorophenyl)-5-oxo-4-[(2S)-3,3,3-trifluoro-2-hydroxypropyl]-4,5-dihydro-1H-1,2,4-triazol-1-yl}methyl)-1H-1,2,4-triazol-1-yl]-N-[3,3,3-trifluoro-2-hydroxypropyl]benzamide], for which the 50% inhibitory concentration (IC50) on human V2 receptor (3 hours) is 260 nM. Further, on human V1a receptor, the half-maximal inhibitory concentration (IC50) was 45 nM and the “ratio IC50 hV2/hV1a” value came out at 5.8.

`O=C(NCC(O)C(F)(F)F)c1cccc(Cl)c1-n1cnc(Cn2nc(-c3ccc(Cl)cc3)n(C[C@@H](O)C(F)(F)F)c2=O)n1` (mixture of isomers) [Example 368, 3-Chloro-2-[3-({3-(4-chlorophenyl)-5-oxo-4-[(2R)-3,3,3-trifluoro-2-hydroxypropyl]-4,5-dihydro-1H-1,2,4-triazol-1-yl}methyl)-1H-1,2,4-triazol-1-yl]-N-[3,3,3-trifluoro-2-hydroxypropyl]benzamide]: at human V2 receptor (3 hours), the half-inhibitory concentration (IC50) was found to be 2100 nM. At human V1a receptor, the 50% inhibitory concentration (IC50) came out at 350 nM and the “ratio IC50 hV2/hV1a” value came out at 6.0.

For the molecule `O=C(NC1CC1(F)F)c1cccc(Cl)c1-n1cnc(Cn2nc(-c3ccc(Cl)cc3)n(C[C@H](O)C(F)(F)F)c2=O)n1` (mixture of isomers) [Example 371, 3-Chloro-2-[3-({3-(4-chlorophenyl)-5-oxo-4-[(2S)-3,3,3-trifluoro-2-hydroxypropyl]-4,5-dihydro-1H-1,2,4-triazol-1-yl}methyl)-1H-1,2,4-triazol-1-yl]-N-[2,2-difluorocyclopropyl]benzamide], the results for the IC50 on human V2 receptor (3 hours) and at human V1a receptor were 710 nM and 15 nM, respectively. The “ratio IC50 hV2/hV1a” value on human V1a receptor was 47.3.

As for `CC1CN(C(=O)c2cccc(Cl)c2-n2cnc(Cn3nc(-c4ccc(Cl)cc4)n(C[C@H](O)C(F)(F)F)c3=O)n2)CCO1` (mixture of isomers) [Example 377, 2-{[1-(2-Chloro-6-{[2-methylmorpholin-4-yl]carbonyl}phenyl)-1H-1,2,4-triazol-3-yl]methyl}-5-(4-chlorophenyl)-4-[(2S)-3,3,3-trifluoro-2-hydroxypropyl]-2,4-dihydro-3H-1,2,4-triazol-3-one], on human V2 receptor (3 hours), the 50% inhibitory concentration (IC50) came to 8600 nM. In addition, on human V1a receptor, the IC50 was found to be 295 nM and the “ratio IC50 hV2/hV1a” value is given as 29.2.

Turning to `NC(=O)C1CCCN1C(=O)c1cccc(Cl)c1-n1cnc(Cn2nc(-c3ccc(Cl)cc3)n(C[C@H](O)C(F)(F)F)c2=O)n1` (mixture of isomers) [Example 378, 1-{3-Chloro-2-[3-({3-(4-chlorophenyl)-5-oxo-4-[(2S)-3,3,3-trifluoro-2-hydroxypropyl]-4,5-dihydro-1H-1,2,4-triazol-1-yl}methyl)-1H-1,2,4-triazol-1-yl]benzoyl}-prolinamide], on human V2 receptor (3 hours), the half-maximal inhibitory concentration (IC50) was found to be 2050 nM. Also, at human V1a receptor, the IC50 turned out to be 120 nM and the “ratio IC50 hV2/hV1a” value was found to be 17.1.

Turning to `O=C(c1cccc(Cl)c1-n1cnc(Cn2nc(-c3ccc(Cl)cc3)n(C[C@H](O)C(F)(F)F)c2=O)n1)N1CCC(O)(C(F)(F)F)C1` (mixture of isomers) [Example 379, 2-{[1-(2-Chloro-6-{[hydroxy-3-(trifluoromethyl)pyrrolidin-1-yl]carbonyl}phenyl)-1H-1,2,4-triazol-3-yl]methyl}-5-(4-chlorophenyl)-4-[(2S)-3,3,3-trifluoro-2-hydroxypropyl]-2,4-dihydro-3H-1,2,4-triazol-3-one], the half-inhibitory concentration (IC50) on human V2 receptor (3 hours) turned out to be 845 nM; on human V1a receptor, 70.5 nM.

`O=C(c1cccc(Cl)c1-n1cnc(Cn2nc(-c3ccc(Cl)cc3)n(C[C@H](O)C(F)(F)F)c2=O)n1)N1CCOC(C(F)(F)F)C1` (mixture of isomers) [Example 380, 5-(4-Chlorophenyl)-2-{[1-(2-chloro-6-{[2-(trifluoromethyl)morpholin-4-yl]carbonyl}phenyl)-1H-1,2,4-triazol-3-yl]methyl}-4-[(2S)-3,3,3-trifluoro-2-hydroxypropyl]-2,4-dihydro-3H-1,2,4-triazol-3-one]: the IC50 on human V2 receptor (3 hours) amounted to 4000 nM. In addition, at human V1a receptor, the half-inhibitory concentration (IC50) is 95.5 nM and the “ratio IC50 hV2/hV1a” value is 41.9.

Consider `O=C(c1cccc(Cl)c1-n1cnc(Cn2nc(-c3ccc(Cl)cc3)n(C[C@H](O)C(F)(F)F)c2=O)n1)N1CCC(C(F)(F)F)C1` (mixture of isomers) [Example 386, 5-(4-Chlorophenyl)-2-{[1-(2-chloro-6-{[3-(trifluoromethyl)pyrrolidin-1-yl]carbonyl}phenyl)-1H-1,2,4-triazol-3-yl]methyl}-4-[(2S)-3,3,3-trifluoro-2-hydroxypropyl]-2,4-dihydro-3H-1,2,4-triazol-3-one], for which the IC50 on human V2 receptor (3 hours) stood at 4150 nM. In addition, at human V1a receptor, the concentration for half-maximal inhibition (IC50) turned out to be 170 nM and the “ratio IC50 hV2/hV1a” value was found to be 24.4.

Regarding `NC(CNC(=O)c1cccc(Cl)c1-n1cnc(Cn2nc(-c3ccc(Cl)cc3)n(C[C@H](O)C(F)(F)F)c2=O)n1)C(F)(F)F` (mixture of isomers) [Example 390, N-[2-Amino-3,3,3-trifluoropropyl]-3-chloro-2-[3-({3-(4-chlorophenyl)-5-oxo-4-[(2S)-3,3,3-trifluoro-2-hydroxypropyl]-4,5-dihydro-1H-1,2,4-triazol-1-yl}methyl)-1H-1,2,4-triazol-1-yl]benzamide], the IC50 at human V2 receptor (3 hours) came to 530 nM. On human V1a receptor, the IC50 was 69 nM and the “ratio IC50 hV2/hV1a” value is 7.7.

For the molecule `O=C(NC1CC1(F)F)c1cccc(Cl)c1-n1cnc(Cn2nc(-c3ccc(Cl)cc3)n(C[C@@H](O)C(F)(F)F)c2=O)n1` (mixture of isomers) [Example 395, 3-Chloro-2-[3-({3-(4-chlorophenyl)-5-oxo-4-[(2R)-3,3,3-trifluoro-2-hydroxypropyl]-4,5-dihydro-1H-1,2,4-triazol-1-yl}methyl)-1H-1,2,4-triazol-1-yl]-N-[2,2-difluorocyclopropyl]benzamide], the IC50 at human V2 receptor (3 hours) stood at 5150 nM; on human V1a receptor, 82 nM. Besides, the “ratio IC50 hV2/hV1a” value on human V1a receptor was found to be 62.8.

Take `NC(=O)C1CCCN1C(=O)c1cccc(Cl)c1-n1cnc(Cn2nc(-c3ccc(Cl)cc3)n(C[C@@H](O)C(F)(F)F)c2=O)n1` (mixture of isomers) [Example 400, 1-{3-Chloro-2-[3-({3-(4-chlorophenyl)-5-oxo-4-[(2R)-3,3,3-trifluoro-2-hydroxypropyl]-4,5-dihydro-1H-1,2,4-triazol-1-yl}methyl)-1H-1,2,4-triazol-1-yl]benzoyl}-prolinamide]: the IC50 on human V2 receptor came out at 32000 nM. Also, at human V1a receptor, the IC50 is 570 nM and the “ratio IC50 hV2/hV1a” value amounted to 56.1.

As to `O=C(NC1CC1F)c1cccc(Cl)c1-n1cnc(Cn2nc(-c3ccc(Cl)cc3)n(C[C@@H](O)C(F)(F)F)c2=O)n1` (mixture of isomers) [Example 406, 3-Chloro-2-[3-({3-(4-chlorophenyl)-5-oxo-4-[(2R)-3,3,3-trifluoro-2-hydroxypropyl]-4,5-dihydro-1H-1,2,4-triazol-1-yl}methyl)-1H-1,2,4-triazol-1-yl]-N-[2-fluorocyclopropyl]benzamide], the IC50 on human V2 receptor was 10100 nM. In addition, on human V1a receptor, the IC50 amounted to 26 nM and the “ratio IC50 hV2/hV1a” value was found to be 390.4.

With `NC(CNC(=O)c1cccc(Cl)c1-n1cnc(Cn2nc(-c3ccc(Cl)cc3)n(C[C@@H](O)C(F)(F)F)c2=O)n1)C(F)(F)F` (mixture of isomers) [Example 408, N-[2-Amino-3,3,3-trifluoropropyl]-3-chloro-2-[3-({3-(4-chlorophenyl)-5-oxo-4-[(2R)-3,3,3-trifluoro-2-hydroxypropyl]-4,5-dihydro-1H-1,2,4-triazol-1-yl}methyl)-1H-1,2,4-triazol-1-yl]benzamide], the IC50 on human V2 receptor was determined as 8500 nM; at human V1a receptor, 400 nM. For the same molecule, on human V1a receptor, the “ratio IC50 hV2/hV1a” value was 21.3.
